Measurements as given in article PMC6892276 (European Journal of Pharmaceutical Sciences, 2019).

How the values were obtained:
[1] = CLint in cryopreserved dog hepatocyte suspensions; type: in vitro ADME; conditions: Beagle
Protocol: (§1) Cells were stored in the vapour phase of liquid nitrogen and thawed as per the supplier's instructions (rapid thawing at 37 °C, followed by centrifugation at 50 ×g for 5 min in thawing medium). Hepatocytes were re-suspended in a small volume of incubation medium (WME buffered with HEPES (final concentration 24 mM) adjusted to pH 7.4). Cell density was estimated using a haemocytometer and light microscope and viability determined according to the trypan blue exclusion method; cells were subsequently diluted to the required concentration in incubation medium. […]
(§2) For the purpose of CLint determination, samples were analysed using an Agilent 1290 Infinity ultra high-performance liquid chromatography (UHPLC) system coupled to an Agilent 6520 Quadrupole Time-of-flight mass spectrometer (Agilent Technologies, Stockport, UK). […]
(§3) In vitro data (parent compound LC-MS response) was fitted to a non-linear single exponential model using the software GraphPad Prism (v6.07, GraphPad Software, Inc., La Jolla, USA) to determine the elimination rate constant (k). CLint in hepatocytes and liver microsomes was calculated using Eqs. […]

[2] = CLint in cryopreserved mouse hepatocyte suspensions; type: in vitro ADME; conditions: ICR/CD-1, cryopreserved hepatocyte suspensions, pH 7.4, female
Protocol: as §1, §2, §3

rCYP3A4 = test: Reaction phenotyping using recombinant CYP, CLint in rCYP3A4; type: in vitro ADME, human; conditions: scaled with ISEF 1.09 and CYP abundance 137 pmol P450/mg; corrected for fuCYP
Protocol: All incubations of subcellular fractions and recombinant enzymes were conducted at 37 °C and 800 rpm using a Hamilton Microlab Star liquid handling workstation (Hamilton Robotics (Bonaduz, Switzerland)).
Recombinant CYP (100 pmol P450/ml) and control bactosome (at an equivalent protein concentration) were prepared in 100 mM KPB. […] The reaction was initiated by the addition of NADPH (final concentration 1 mM) and allowed to proceed for 20 min. At T0 (see Section 2.4.1), 0.5, 5, 10, 15 and 20 min, an aliquot was removed from each incubation and quenched in ice cold methanol containing internal standard.
CLint in rCYP was calculated using Eq. (3) and scaled to μl/min/mg microsomal protein using Eq. (4).(3) CLintμl/min/pmolP450=V·k/pmol protein (4) CLintμl/min/mgmicrosomal protein=CLintμl/min/pmolP450·ISEF·CYPabundance where ISEF is the Intersystem Extrapolation Factor and CYP abundance is amount of each CYP relative to microsomal protein. For rCYP3A4 an ISEF of 1.09 ([Certara, 2017]) and a CYP abundance of 137 pmol P450/mg microsomal protein ([Certara, 2017]) were used.
Unbound CLint (CLint,u) was calculated using Eq. (6).(6) CLint,u=CLint/fu

[3] = Protein binding in HLM (Rapid Equilibrium Dialysis); type: in vitro ADME; conditions: human, liver microsomes, HLM 1 mg/ml, dialysis 4 h at 37 °C, read-out: fumic (fraction unbound in microsomes)
Protocol: Samples were removed, matrix matched and quenched with methanol containing internal standard; further processing is as described in Section 2.6.
The fraction unbound (fu) in HLM/rCYP was calculated using Eq. (5).(5) fu=1/1+1/PARreceiver/PARdonor−1 where PAR = Peak Area Ratio of analyte/internal standard.

hERG = test system: hERG; parameters: method as in Bavetsias et al., 2012; conditions: ref Bavetsias et al., 2012; read-out: hERG blockade IC50; cited from earlier work
[4] = parameters: method as in Bavetsias et al., 2012; conditions: rat; ref Bavetsias et al., 2012; cited from earlier work
[5] = parameters: method as in Bavetsias et al., 2012; conditions: mouse and rat; ref Bavetsias et al., 2012; cited from earlier work
CYP1A2 = test system: CYP1A2; parameters: method as in Bavetsias et al., 2012; conditions: ref Bavetsias et al., 2012; read-out: CYP1A2 inhibition IC50; cited from earlier work
CYP2C19 = test system: CYP2C19; parameters: method as in Bavetsias et al., 2012; conditions: ref Bavetsias et al., 2012; read-out: CYP2C19 inhibition IC50; cited from earlier work
MV4-11 xenograft = test system: MV4-11 xenograft; parameters: method as in Bavetsias et al., 2012; conditions: MV4-11 xenograft mouse model; ref Bavetsias et al., 2012; cited from earlier work
[6] = test system: histone H-3 and STAT5 phosphorylation; parameters: method as in Bavetsias et al., 2012; conditions: p.o. 50 and 100 mg/kg b.i.d., 4-day mouse PK/PD study; ref Bavetsias et al., 2012; cited from earlier work

Cc1nn(C)cc1-c1nc2c(N3CCN(Cc4ccc(Cl)cc4)CC3)c(Cl)cnc2[nH]1 [CCT241736, 6-Chloro-7-(4-(4-chlorobenzyl)piperazin-1-yl)-2-(1,3-dimethyl-1Hpyrazol-4-yl)-3H-imidazo[4,5-b] pyridine] gave a hepatocyte CLint at 1 μM ([1]; pH 7.4, female) of 3.9 µL/min/1e6 cells, a hepatocyte CLint at 1 μM ([1]; pH 7.4, male) of 8.4 µL/min/1e6 cells and a hepatocyte CLint at 1 μM [2] of 91 µL/min/1e6 cells. For the same molecule, the “scaled CLint,u in rCYP3A4” value (rCYP3A4) was 4078 μl/min/mg microsomal protein, the fraction unbound at 4 h, 1 μM [3] was 0.0018 and the IC50 (hERG) was over 25 µM. The clearance [4] was 4.57 mL/min/kg, the oral bioavailability [5] was 79–100% and the IC50 (CYP1A2) was over 10 µM. For the same molecule, the IC50 (CYP2C19) was over 10 µM, the “inhibition of tumour growth” value (MV4-11 xenograft) was “strong inhibition of tumour growth” and the “biomarker modulation (histone H-3 and STAT5 phosphorylation)” value [6] was “biomarker modulation”.
